# Data reported in patent US12227500B2, “Substituted pyrrolo[2,3-b]pyridines for suppressing toxic endoplasmic reticulum stress” (THE TRUSTEES OF COLUMBIA UNIVERSITY IN THE CITY OF NEW YORK, priority 2018, dated 2025).
# Like-named read-outs stand apart in the source and are kept apart here.
# Assays:
# Assay in all cases: Radiolabeled ATP kinase assay, panel of 371 kinases (Table S6)
# Assay type in all cases: biochemical
# [1] = biological target: T1, panel of 371 human kinases (Homo sapiens, UniProt P09769); settings: FGR; 0.1 μM; 10 μM ATP; read-out: % Enzyme Activity (relative to DMSO controls)
# T1 construct: purchased Reaction Biology Corp
# Source text: (§1) ; FIG. 38C). […]. Further targeted analyses, such as genetic knock-down or knock-out, may be warranted to parse the role of these additional kinases in our model of neurodegeneration.
# [2] = biological target: T2, panel of 371 human kinases (Homo sapiens, UniProt Q6PHR2); settings: ULK3; 0.1 μM; 10 μM ATP; read-out: % Enzyme Activity (relative to DMSO controls)
# T2 construct: purchased Reaction Biology Corp
# Source text: as §1
# [3] = biological target: T3, panel of 371 human kinases (Homo sapiens, UniProt Q8N568); settings: DCAMKL2; 0.1 μM; 10 μM ATP; read-out: % Enzyme Activity (relative to DMSO controls)
# T3 construct: purchased Reaction Biology Corp
# Source text: as §1
# [4] = biological target: T4, panel of 371 human kinases (Homo sapiens, UniProt Q13470); settings: TNK1; 0.1 μM; 10 μM ATP; read-out: % Enzyme Activity (relative to DMSO controls)
# T4 construct: purchased Reaction Biology Corp
# Source text: as §1
# [5] = biological target: T5, panel of 371 human kinases (Homo sapiens, UniProt P23458); settings: JAK1; 0.1 μM; 10 μM ATP; read-out: % Enzyme Activity (relative to DMSO controls)
# T5 construct: purchased Reaction Biology Corp
# Source text: as §1
# [6] = biological target: T6, panel of 371 human kinases (Homo sapiens, UniProt Q96NX5); settings: CAMK1g; 0.1 μM; 10 μM ATP; read-out: % Enzyme Activity (relative to DMSO controls)
# T6 construct: purchased Reaction Biology Corp
# Source text: as §1
# [7] = biological target: T7, panel of 371 human kinases (Homo sapiens, UniProt Q9HCP0); settings: CK1g1; 0.1 μM; 10 μM ATP; read-out: % Enzyme Activity (relative to DMSO controls)
# T7 construct: purchased Reaction Biology Corp
# Source text: as §1
# [8] = biological target: T8, panel of 371 human kinases (Homo sapiens, UniProt Q86UE8); settings: TLK2; 0.1 μM; 10 μM ATP; read-out: % Enzyme Activity (relative to DMSO controls)
# T8 construct: purchased Reaction Biology Corp
# Source text: as §1
# [9] = biological target: T9, panel of 371 human kinases (Homo sapiens, UniProt Q8TD19); settings: NEK9; 0.1 μM; 10 μM ATP; read-out: % Enzyme Activity (relative to DMSO controls)
# T9 construct: purchased Reaction Biology Corp
# Source text: as §1
# [10] = biological target: T10, panel of 371 human kinases (Homo sapiens, UniProt P51617); settings: IRAK1; 0.1 μM; 10 μM ATP; read-out: % Enzyme Activity (relative to DMSO controls)
# T10 construct: purchased Reaction Biology Corp
# Source text: as §1
# [11] = biological target: T11, panel of 371 human kinases (Homo sapiens, UniProt Q96BR1); settings: SGK3/SGKL; 0.1 μM; 10 μM ATP; read-out: % Enzyme Activity (relative to DMSO controls)
# T11 construct: purchased Reaction Biology Corp
# Source text: as §1
# [12] = biological target: T12, panel of 371 human kinases (Homo sapiens, UniProt Q8WXR4); settings: MYO3b; 0.1 μM; 10 μM ATP; read-out: % Enzyme Activity (relative to DMSO controls)
# T12 construct: purchased Reaction Biology Corp
# Source text: as §1
# [13] = biological target: T13, panel of 371 human kinases (Homo sapiens, UniProt Q5TCY1); settings: TTBK1; 0.1 μM; 10 μM ATP; read-out: % Enzyme Activity (relative to DMSO controls)
# T13 construct: purchased Reaction Biology Corp
# Source text: as §1
# [14] = biological target: T14, panel of 371 human kinases (Homo sapiens, UniProt Q08345); settings: DDR1; 0.1 μM; 10 μM ATP; read-out: % Enzyme Activity (relative to DMSO controls)
# T14 construct: purchased Reaction Biology Corp
# Source text: as §1
# [15] = biological target: T15, panel of 371 human kinases (Homo sapiens, UniProt Q16513); settings: PKN2/PRK2; 0.1 μM; 10 μM ATP; read-out: % Enzyme Activity (relative to DMSO controls)
# T15 construct: purchased Reaction Biology Corp
# Source text: as §1
# [16] = biological target: T16, panel of 371 human kinases (Homo sapiens, UniProt P49137); settings: MAPKAPK2; 0.1 μM; 10 μM ATP; read-out: % Enzyme Activity (relative to DMSO controls)
# T16 construct: purchased Reaction Biology Corp
# Source text: as §1
# [17] = biological target: T17, panel of 371 human kinases (Homo sapiens, UniProt P06493); settings: 0.1 μM, 10 μM ATP, read-out: % Enzyme Activity (relative to DMSO controls)
# T17 construct: purchased Reaction Biology Corp
# Source text: as §1
# [18] = biological target: T18, panel of 371 human kinases (Homo sapiens, UniProt Q86YV6); settings: MYLK4; 0.1 μM; 10 μM ATP; read-out: % Enzyme Activity (relative to DMSO controls)
# T18 construct: purchased Reaction Biology Corp
# Source text: as §1
# [19] = biological target: T19, panel of 371 human kinases (Homo sapiens, UniProt P43405); settings: SYK; 0.1 μM; 10 μM ATP; read-out: % Enzyme Activity (relative to DMSO controls)
# T19 construct: purchased Reaction Biology Corp
# Source text: as §1
# [20] = biological target: T20, panel of 371 human kinases (Homo sapiens, UniProt P06239); settings: LCK; 0.1 μM; 10 μM ATP; read-out: % Enzyme Activity (relative to DMSO controls)
# T20 construct: purchased Reaction Biology Corp
# Source text: as §1
# [21] = biological target: T21, panel of 371 human kinases (Homo sapiens, UniProt P29376); settings: TYK1/LTK; 0.1 μM; 10 μM ATP; read-out: % Enzyme Activity (relative to DMSO controls)
# T21 construct: purchased Reaction Biology Corp
# Source text: as §1
# [22] = biological target: T22, panel of 371 human kinases (Homo sapiens, UniProt O94806); settings: PKCnu/PRKD3; 0.1 μM; 10 μM ATP; read-out: % Enzyme Activity (relative to DMSO controls)
# T22 construct: purchased Reaction Biology Corp
# Source text: as §1
# [23] = biological target: T23, panel of 371 human kinases (Homo sapiens, UniProt Q9UPE1); settings: MSSK1/STK23; 0.1 μM; 10 μM ATP; read-out: % Enzyme Activity (relative to DMSO controls)
# T23 construct: purchased Reaction Biology Corp
# Source text: as §1
# [24] = biological target: T24, panel of 371 human kinases (Homo sapiens, UniProt P30530); settings: AXL; 0.1 μM; 10 μM ATP; read-out: % Enzyme Activity (relative to DMSO controls)
# T24 construct: purchased Reaction Biology Corp
# Source text: as §1
# T17 sequence (P06493 whole entry): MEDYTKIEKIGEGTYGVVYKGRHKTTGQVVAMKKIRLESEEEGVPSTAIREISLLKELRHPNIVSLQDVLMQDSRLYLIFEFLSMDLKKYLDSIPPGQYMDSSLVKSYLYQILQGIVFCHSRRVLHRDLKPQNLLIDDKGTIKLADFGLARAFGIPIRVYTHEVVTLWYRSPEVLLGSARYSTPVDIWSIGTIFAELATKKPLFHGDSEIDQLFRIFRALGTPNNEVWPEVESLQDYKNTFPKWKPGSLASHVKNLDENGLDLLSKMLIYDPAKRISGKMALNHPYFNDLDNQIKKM
# T4 sequence (Q13470 whole entry): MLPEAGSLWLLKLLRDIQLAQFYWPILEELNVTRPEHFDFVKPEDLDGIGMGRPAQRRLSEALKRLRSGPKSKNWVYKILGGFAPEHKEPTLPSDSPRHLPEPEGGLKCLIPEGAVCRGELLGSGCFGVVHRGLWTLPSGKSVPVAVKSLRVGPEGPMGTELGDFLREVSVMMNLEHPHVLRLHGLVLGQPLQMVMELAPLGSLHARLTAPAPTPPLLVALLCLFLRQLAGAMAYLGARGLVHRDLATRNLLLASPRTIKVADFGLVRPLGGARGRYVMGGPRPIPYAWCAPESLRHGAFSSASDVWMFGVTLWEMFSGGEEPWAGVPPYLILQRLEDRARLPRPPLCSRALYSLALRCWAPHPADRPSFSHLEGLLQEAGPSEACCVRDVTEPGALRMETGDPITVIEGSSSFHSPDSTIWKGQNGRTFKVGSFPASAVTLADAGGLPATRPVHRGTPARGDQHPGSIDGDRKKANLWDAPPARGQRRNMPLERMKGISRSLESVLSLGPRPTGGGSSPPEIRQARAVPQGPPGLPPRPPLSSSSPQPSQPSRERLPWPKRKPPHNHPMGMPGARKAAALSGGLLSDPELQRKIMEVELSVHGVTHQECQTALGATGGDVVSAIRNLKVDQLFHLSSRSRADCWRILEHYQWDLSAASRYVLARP
# T7 sequence (Q9HCP0 whole entry): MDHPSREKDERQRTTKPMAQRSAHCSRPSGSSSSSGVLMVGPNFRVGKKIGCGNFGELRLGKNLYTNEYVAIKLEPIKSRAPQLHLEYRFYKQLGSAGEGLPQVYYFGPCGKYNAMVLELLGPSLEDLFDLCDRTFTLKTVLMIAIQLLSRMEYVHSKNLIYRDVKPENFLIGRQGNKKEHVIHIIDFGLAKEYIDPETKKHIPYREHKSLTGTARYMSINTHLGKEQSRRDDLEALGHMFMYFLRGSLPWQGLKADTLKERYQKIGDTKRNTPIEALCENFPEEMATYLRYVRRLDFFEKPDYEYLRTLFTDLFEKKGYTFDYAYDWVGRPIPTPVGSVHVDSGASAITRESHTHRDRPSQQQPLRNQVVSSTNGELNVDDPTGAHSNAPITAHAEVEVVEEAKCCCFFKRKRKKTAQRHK
# T8 sequence (Q86UE8 whole entry): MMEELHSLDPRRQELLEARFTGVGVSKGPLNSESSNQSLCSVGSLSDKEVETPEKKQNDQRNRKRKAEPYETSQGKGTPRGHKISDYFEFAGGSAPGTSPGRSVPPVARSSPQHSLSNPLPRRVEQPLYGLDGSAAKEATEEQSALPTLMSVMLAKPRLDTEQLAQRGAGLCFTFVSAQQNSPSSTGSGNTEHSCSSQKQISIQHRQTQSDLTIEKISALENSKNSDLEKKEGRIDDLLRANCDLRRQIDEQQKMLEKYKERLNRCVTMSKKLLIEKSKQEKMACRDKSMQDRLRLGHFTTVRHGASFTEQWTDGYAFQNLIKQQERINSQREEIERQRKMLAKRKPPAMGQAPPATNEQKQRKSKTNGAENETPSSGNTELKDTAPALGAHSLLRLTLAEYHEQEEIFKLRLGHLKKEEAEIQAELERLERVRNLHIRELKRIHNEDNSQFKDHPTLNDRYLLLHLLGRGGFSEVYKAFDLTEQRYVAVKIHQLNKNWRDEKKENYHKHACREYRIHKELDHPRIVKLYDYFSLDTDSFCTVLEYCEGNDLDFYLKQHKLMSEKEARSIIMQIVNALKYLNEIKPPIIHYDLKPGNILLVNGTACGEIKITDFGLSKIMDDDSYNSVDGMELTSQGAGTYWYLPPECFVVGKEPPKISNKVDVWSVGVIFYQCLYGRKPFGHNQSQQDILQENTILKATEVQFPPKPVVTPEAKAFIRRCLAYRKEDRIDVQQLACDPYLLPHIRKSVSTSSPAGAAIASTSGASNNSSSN
# T23 sequence (Q9UPE1 whole entry): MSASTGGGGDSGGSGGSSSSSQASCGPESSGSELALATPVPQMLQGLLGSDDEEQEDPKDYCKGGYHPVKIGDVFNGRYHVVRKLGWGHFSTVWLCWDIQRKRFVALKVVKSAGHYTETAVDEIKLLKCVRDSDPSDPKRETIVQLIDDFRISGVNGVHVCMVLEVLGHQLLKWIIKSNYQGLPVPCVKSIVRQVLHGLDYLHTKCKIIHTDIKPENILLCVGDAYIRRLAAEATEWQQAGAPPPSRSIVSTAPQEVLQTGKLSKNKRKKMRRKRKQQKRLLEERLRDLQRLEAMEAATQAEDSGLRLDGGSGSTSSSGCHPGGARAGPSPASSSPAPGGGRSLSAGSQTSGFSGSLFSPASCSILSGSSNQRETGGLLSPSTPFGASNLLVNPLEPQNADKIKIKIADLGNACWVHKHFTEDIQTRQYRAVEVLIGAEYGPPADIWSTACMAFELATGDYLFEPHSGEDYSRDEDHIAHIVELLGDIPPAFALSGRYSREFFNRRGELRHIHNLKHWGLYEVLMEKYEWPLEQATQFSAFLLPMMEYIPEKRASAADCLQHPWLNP
# T20 sequence (P06239 whole entry): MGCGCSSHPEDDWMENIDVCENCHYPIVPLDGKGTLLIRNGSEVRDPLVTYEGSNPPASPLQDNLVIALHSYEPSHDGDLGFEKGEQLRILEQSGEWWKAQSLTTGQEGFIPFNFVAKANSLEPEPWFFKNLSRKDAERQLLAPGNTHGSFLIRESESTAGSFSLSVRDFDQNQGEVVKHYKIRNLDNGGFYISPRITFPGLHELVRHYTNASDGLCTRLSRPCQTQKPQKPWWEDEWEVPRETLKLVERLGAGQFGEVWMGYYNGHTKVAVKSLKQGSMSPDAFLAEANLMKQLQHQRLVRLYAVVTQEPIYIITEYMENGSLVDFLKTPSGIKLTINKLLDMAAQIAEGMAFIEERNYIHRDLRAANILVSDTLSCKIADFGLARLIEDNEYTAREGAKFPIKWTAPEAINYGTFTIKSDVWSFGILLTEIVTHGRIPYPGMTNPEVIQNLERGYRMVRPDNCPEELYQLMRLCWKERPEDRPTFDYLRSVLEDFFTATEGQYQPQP
# T13 sequence (Q5TCY1 whole entry): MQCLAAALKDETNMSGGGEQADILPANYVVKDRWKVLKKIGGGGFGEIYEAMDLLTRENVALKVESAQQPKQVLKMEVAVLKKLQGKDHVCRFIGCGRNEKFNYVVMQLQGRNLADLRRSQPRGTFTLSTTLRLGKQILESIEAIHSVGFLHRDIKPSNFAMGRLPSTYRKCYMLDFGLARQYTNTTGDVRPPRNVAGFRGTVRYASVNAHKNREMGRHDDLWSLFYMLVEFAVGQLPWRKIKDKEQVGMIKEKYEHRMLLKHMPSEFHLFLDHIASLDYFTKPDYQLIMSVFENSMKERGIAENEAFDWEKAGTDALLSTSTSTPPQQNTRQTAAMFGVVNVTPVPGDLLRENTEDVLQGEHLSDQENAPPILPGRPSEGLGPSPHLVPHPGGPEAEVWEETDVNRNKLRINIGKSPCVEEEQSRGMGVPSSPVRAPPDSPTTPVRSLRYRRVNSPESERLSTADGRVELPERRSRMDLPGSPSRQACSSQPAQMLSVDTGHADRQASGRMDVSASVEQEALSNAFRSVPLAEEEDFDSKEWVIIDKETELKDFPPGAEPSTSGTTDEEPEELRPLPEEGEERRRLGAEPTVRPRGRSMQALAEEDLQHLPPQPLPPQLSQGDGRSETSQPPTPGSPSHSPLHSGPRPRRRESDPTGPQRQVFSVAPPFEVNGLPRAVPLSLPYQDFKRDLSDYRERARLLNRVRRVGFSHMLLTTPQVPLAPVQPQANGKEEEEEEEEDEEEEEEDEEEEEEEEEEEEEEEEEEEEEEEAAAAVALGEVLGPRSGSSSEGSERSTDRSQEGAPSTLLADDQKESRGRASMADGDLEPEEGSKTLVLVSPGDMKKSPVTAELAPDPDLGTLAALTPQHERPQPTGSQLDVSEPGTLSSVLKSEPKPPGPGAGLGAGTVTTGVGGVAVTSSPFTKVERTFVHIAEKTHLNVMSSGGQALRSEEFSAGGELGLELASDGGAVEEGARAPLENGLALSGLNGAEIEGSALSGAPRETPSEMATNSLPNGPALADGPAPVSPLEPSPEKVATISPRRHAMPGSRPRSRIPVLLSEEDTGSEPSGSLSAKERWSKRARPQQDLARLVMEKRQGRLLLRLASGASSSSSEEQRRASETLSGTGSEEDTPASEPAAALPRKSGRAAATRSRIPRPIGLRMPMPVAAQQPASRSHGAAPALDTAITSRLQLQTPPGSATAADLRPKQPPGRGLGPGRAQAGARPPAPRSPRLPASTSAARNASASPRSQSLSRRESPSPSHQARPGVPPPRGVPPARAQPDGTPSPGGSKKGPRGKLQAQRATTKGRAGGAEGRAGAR
# T6 sequence (Q96NX5 whole entry): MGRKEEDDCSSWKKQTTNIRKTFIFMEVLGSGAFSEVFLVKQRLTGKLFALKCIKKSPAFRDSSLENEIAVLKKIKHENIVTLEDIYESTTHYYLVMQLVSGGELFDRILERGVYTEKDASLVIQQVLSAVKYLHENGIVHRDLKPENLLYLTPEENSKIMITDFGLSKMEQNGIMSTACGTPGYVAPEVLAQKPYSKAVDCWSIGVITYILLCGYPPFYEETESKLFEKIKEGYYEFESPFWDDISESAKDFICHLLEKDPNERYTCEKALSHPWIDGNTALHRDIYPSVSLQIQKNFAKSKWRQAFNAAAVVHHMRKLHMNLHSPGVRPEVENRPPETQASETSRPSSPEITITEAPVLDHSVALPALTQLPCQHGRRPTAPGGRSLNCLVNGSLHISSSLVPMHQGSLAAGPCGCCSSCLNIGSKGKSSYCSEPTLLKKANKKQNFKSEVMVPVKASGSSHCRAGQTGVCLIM
Compound,remaining activity at 0.1 µM [1],remaining activity at 0.1 µM [2],remaining activity at 0.1 µM [3],remaining activity at 0.1 µM [4],remaining activity at 0.1 µM [5],remaining activity at 0.1 µM [6],remaining activity at 0.1 µM [7],remaining activity at 0.1 µM [8],remaining activity at 0.1 µM [9],remaining activity at 0.1 µM [10],remaining activity at 0.1 µM [11],remaining activity at 0.1 µM [12],remaining activity at 0.1 µM [13],remaining activity at 0.1 µM [14],remaining activity at 0.1 µM [15],remaining activity at 0.1 µM [16],remaining activity at 0.1 µM ([17]; CDK1/cyclin A),remaining activity at 0.1 µM ([17]; CDK1/cyclin B),remaining activity at 0.1 µM ([17]; CDK1/cyclin E),remaining activity at 0.1 µM [18],also measured
"OCCN1CCN(Cc2ccc(-c3cnc4[nH]cc(-c5cccc(Cl)c5)c4c3)cc2)CC1 [Compound 12k, 2-(4-(4-(3-(3-Chlorophenyl)-1H-pyrrolo[2,3-b]pyridin-5-yl)benzyl)piperazin-1-yl)ethan-1-ol]",84.2%,41.5%,87.6%,95.6%,90.5%,101%,116%,95.2%,95.1%,73.2%,88.2%,40.7%,106%,86.6%,59.5%,99.6%,79.9%,84.9%,91.1%,37.2%,remaining activity at 0.1 µM [19]: 93.9%; remaining activity at 0.1 µM [20]: 98.8%; remaining activity at 0.1 µM [21]: 117%; remaining activity at 0.1 µM [22]: 13.6%; remaining activity at 0.1 µM [23]: 103%; remaining activity at 0.1 µM [24]: 39.8%
"CN1CCN(Cc2ccc(-c3cnc4[nH]cc(-c5ccc6[nH]ccc6c5)c4c3)cc2)CC1 [Compound 1, 3-(1H-Indol-5-yl)-5-(4-((4-methylpiperazin-1-yl)methyl)phenyl)-1H-pyrrolo[2,3-b]pyridine, reference compound]",97.2%,70%,87.1%,97%,103%,97.8%,143%,93%,101%,86.2%,74.3%,80.8%,111%,89.9%,81.6%,96.9%,95.1%,96.5%,98.7%,53.6%,remaining activity at 0.1 µM [19]: 89.6%; remaining activity at 0.1 µM [20]: 94.2%; remaining activity at 0.1 µM [21]: 105%; remaining activity at 0.1 µM [22]: 29.1%; remaining activity at 0.1 µM [23]: 112%; remaining activity at 0.1 µM [24]: 35.8%
